Some results are limits rather than exact numbers.

T1 sequence (P08473 52-750 limits assumed): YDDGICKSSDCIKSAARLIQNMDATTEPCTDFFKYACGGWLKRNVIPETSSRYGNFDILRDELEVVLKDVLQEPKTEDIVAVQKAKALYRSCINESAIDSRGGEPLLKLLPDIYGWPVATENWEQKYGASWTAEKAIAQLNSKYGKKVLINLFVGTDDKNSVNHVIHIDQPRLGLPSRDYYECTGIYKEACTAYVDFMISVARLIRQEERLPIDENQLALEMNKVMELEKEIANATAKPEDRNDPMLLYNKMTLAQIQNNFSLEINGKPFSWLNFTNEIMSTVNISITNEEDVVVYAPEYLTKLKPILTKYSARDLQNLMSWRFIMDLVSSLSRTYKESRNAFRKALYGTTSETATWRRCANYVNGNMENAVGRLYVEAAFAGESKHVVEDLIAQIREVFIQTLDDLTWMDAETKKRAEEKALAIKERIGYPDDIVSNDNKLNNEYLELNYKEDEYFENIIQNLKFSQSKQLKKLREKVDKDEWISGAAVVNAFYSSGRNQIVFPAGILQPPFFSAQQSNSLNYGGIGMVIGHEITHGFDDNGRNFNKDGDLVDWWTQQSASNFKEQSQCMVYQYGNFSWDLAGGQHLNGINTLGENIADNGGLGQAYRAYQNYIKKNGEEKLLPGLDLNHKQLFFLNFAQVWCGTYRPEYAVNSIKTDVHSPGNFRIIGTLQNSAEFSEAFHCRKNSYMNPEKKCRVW

This assay addresses T1, human NEP (Homo sapiens, UniProt P08473).
T1 construct: purchased R&D Systems, Minneapolis, MN 1182-ZN
The experiment in a line: In vitro enzyme inhibition assay at human NEP (fluorogenic peptide substrate). It is filed as biochemical. Conditions: recombinant human NEP; 10 μM fluorogenic substrate Mca-D-Arg-Arg-Leu-Dap-(Dnp)-OH; 37° C.; 30 minute preincubation; read-out: pKi value at human NEP (converted). As for the experimental part: In Vitro Assays for the Quantitation of Inhibitor Potencies (IC50) at Human and Rat NEP, and Human ACE
The inhibitory activities of compounds at human and rat neprilysin (EC 3.4.24.11; NEP) and human angiotensin converting enzyme (ACE) were determined using in vitro assays as described below.
Recombinant human NEP and recombinant human ACE were obtained commercially (R&D Systems, Minneapolis, MN, catalog numbers 1182-ZN and 929-ZN, respectively). The fluorogenic peptide substrate Mca-D-Arg-Arg-Leu-Dap-(Dnp)-OH (Medeiros et al. (1997) Braz. J. Med. Biol. Res. 30:1157-62; Anaspec, San Jose, CA) and Abz-Phe-Arg-Lys(Dnp)-Pro-OH (Araujo et al. (2000) Biochemistry 39:8519-8525; Bachem, Torrance, CA) were used in the NEP and ACE assays respectively.
The assays were performed in 384-well white opaque plates at 37° C. using the fluorogenic peptide substrates at a concentration of 10 μM in Assay Buffer (NEP: 50 mM HEPES, pH 7.5, 100 mM NaCl, 0.01% polyethylene glycol sorbitan monolaurate (Tween-20), 10 μM ZnSO4; ACE: 50 mM HEPES, pH 7.5, 100 mM NaCl, 0.01% Tween-20, 1 μM ZnSO4).
Test compounds were assayed over the range of concentrations from 10 μM to 20 pM. Test compounds were added to the enzymes and incubated for 30 minute at 37° C. prior to initiating the reaction by the addition of substrate. Reactions were terminated after 20 minutes of incubation at 37° C. by the addition of glacial acetic acid to a final concentration of 3.6% (v/v).
Plates were read on a fluorometer with excitation and emission wavelengths set to 320 nm and 405 nm, respectively. Inhibition constants were obtained by nonlinear regression of the data using the equation (GraphPad Software, Inc., San Diego, CA): ν=ν0/[1+(I/K′)] where ν is the reaction rate, ν0 is the uninhibited reaction rate, I is the inhibitor concentration and K′ is the apparent inhibition constant.
Consider `C[C@@](CO)(C[C@@H](Cc1ccc(-c2cc(Cl)ccc2F)cc1)NC(=O)c1c[nH]nn1)C(=O)O` [Example 2E, (2S,4R)-5-(5′-Chloro-2′-fluorobiphenyl-4-yl)-2-hydroxymethyl-2-methyl-4-[(1H-[1,2,3]triazole-4-carbonyl)amino]pentanoic Acid], for which the Ki was 1 to 3.16 nM.

For the compound `C[C@@](COCCO)(C[C@@H](Cc1ccc(-c2cc(Cl)ccc2F)cc1)NC(=O)c1cnn[nH]1)C(=O)O` [Example 2S, (2S,4R)-5-(5′-Chloro-2′-fluorobiphenyl-4-yl)-2-(2-hydroxyethoxymethyl)-2-methyl-4-[(3H-[1,2,3]triazole-4-carbonyl)amino]pentanoic Acid], the Ki was 3.16 to 10 nM.

For the compound `CC(C)Cc1cc(C(=O)N[C@H](Cc2ccc(-c3cc(Cl)ccc3F)cc2)C[C@@](C)(CO)C(=O)O)[nH]n1` [Example 7F, (2S,4R)-5-(5′-Chloro-2′-fluorobiphenyl-4-yl)-2-hydroxymethyl-4-[(5-isobutyl-2H-pyrazole-3-carbonyl)amino]-2-methylpentanoic Acid], the Ki was at most 1 nM.

As for `CCOC[C@](C)(C[C@@H](Cc1ccc(-c2cc(Cl)ccc2F)cc1)NC(=O)c1cc(CC)no1)C(=O)O` [Example 6O, (2S,4R)-5-(5′-Chloro-2′-fluorobiphenyl-4-yl)-2-ethoxymethyl-4-[(3-ethylisoxazole-5-carbonyl)amino]-2-methylpentanoic Acid], the Ki was at most 1 nM.

Consider `Cc1ccccc1-c1ccc(C[C@H](C[C@@](C)(CO)C(=O)O)NC(=O)c2c[nH]nn2)cc1` [Example 2C, (2S,4R)-2-Hydroxymethyl-2-methyl-5-(2′-methylbiphenyl-4-yl)-4-[(1H-[1,2,3]triazole-4-carbonyl)amino]pentanoic Acid], for which the Ki is at most 1 nM.

With `C[C@@](CO)(C[C@@H](Cc1ccc(-c2cccc(Cl)c2)cc1)NC(=O)c1c[nH]nn1)C(=O)O` [Example 2D, (2S,4R)-5-(3′-Chlorobiphenyl-4-yl)-2-hydroxymethyl-2-methyl-4-[(1H-[1,2,3]triazole-4-carbonyl)amino]pentanoic Acid], the Ki is at most 1 nM.

In the case of `COc1cc(C(=O)N[C@H](Cc2ccc(-c3cccc(Cl)c3)cc2)C[C@@](C)(CO)C(=O)O)on1` [Example 6A, (2S,4R)-5-(3′-Chlorobiphenyl-4-yl)-2-hydroxymethyl-4-[(3-methoxyisoxazole-5-carbonyl)amino]-2-methylpentanoic Acid], the Ki was at most 1 nM.

As to `CC(=O)OC[C@](C)(C[C@@H](Cc1ccc(-c2ccccc2)cc1)NC(=O)c1cnn[nH]1)C(=O)O` [Example 1D, (2S,4R)-2-Acetoxymethyl-5-biphenyl-4-yl-2-methyl-4-[(3H-[1,2,3]triazole-4-carbonyl)amino]pentanoic Acid], the Ki is at most 1 nM.

Turning to `C[C@@](CO)(C[C@@H](Cc1ccc(-c2cc(Cl)ccc2Cl)cc1)NC(=O)c1c[nH]nn1)C(=O)O` [Example 2F, (2S,4R)-5-(2′,5′-Dichlorobiphenyl-4-yl)-2-hydroxymethyl-2-methyl-4-[(1H-[1,2,3]triazole-4-carbonyl)amino]pentanoic Acid], the Ki was at most 1 nM.

As for `COc1cc(C(=O)N[C@H](Cc2ccc(-c3cc(Cl)ccc3F)cc2)C[C@@](C)(CO)C(=O)O)n[nH]1` [Example 7E, (2S,4R)-5-(5′-Chloro-2′-fluorobiphenyl-4-yl)-2-hydroxymethyl-4-[(5-methoxy-1H-pyrazole-3-carbonyl)amino]-2-methylpentanoic Acid], the Ki is at most 1 nM.

In the case of `CCOC[C@](C)(C[C@@H](Cc1ccc(-c2cc(Cl)ccc2F)cc1)NC(=O)c1cc(O)no1)C(=O)O` [Example 6N, (2S,4R)-5-(5′-Chloro-2′-fluorobiphenyl-4-yl)-2-ethoxymethyl-4-[(3-hydroxyisoxazole-5-carbonyl)amino]-2-methylpentanoic Acid], the Ki was at most 1 nM.

In the case of `COC[C@](C)(C[C@@H](Cc1ccc(-c2cc(Cl)ccc2F)cc1)NC(=O)c1cc(C(C)=O)n[nH]1)C(=O)O` [Example 8B, (2S,4R)-4-[(5-Acetyl-2H-pyrazole-3-carbonyl)amino]-5-(5′-chloro-2′-fluorobiphenyl-4-yl)-2-methoxymethyl-2-methylpentanoic Acid], the Ki was 1 to 3.16 nM.

On to `CCCCCOC[C@](C)(C[C@@H](Cc1ccc(-c2cc(Cl)ccc2F)cc1)NC(=O)c1cnn[nH]1)C(=O)O` [Example 2Q, (2S,4R)-5-(5′-Chloro-2′-fluorobiphenyl-4-yl)-2-methyl-2-pentyloxymethyl-4-[(3H-[1,2,3]triazole-4-carbonyl)amino]pentanoic Acid], for which the Ki is 1 to 3.16 nM.

As to `CCOc1cc(C(=O)N[C@H](Cc2ccc(-c3cc(Cl)ccc3F)cc2)C[C@@](C)(COC)C(=O)O)[nH]n1` [Example 7D, (2S,4R)-5-(5′-Chloro-2′-fluorobiphenyl-4-yl)-4-[(5-ethoxy-2H-pyrazole-3-carbonyl)-amino]-2-methoxymethyl-2-methylpentanoic Acid], the Ki is 1 to 3.16 nM.

Take `CCOc1cc(C(=O)N[C@H](Cc2ccc(-c3cc(Cl)ccc3F)cc2)C[C@@](C)(CO)C(=O)O)n[nH]1` [Example 7B, (2S,4R)-5-(5′-Chloro-2′-fluorobiphenyl-4-yl)-4-[(5-ethoxy-1H-pyrazole-3-carbonyl)-amino]-2-hydroxymethyl-2-methylpentanoic Acid]: the Ki is at most 1 nM.

`C[C@@](CO)(C[C@@H](Cc1ccc(-c2ccccc2Cl)cc1)NC(=O)c1c[nH]nn1)C(=O)O` [Example 2B, (2S,4R)-5-(2′-Chlorobiphenyl-4-yl)-2-hydroxymethyl-2-methyl-4-[(1H-[1,2,3]triazole-4-carbonyl)amino]pentanoic Acid]: the Ki was at most 1 nM.

Regarding `CC(=O)c1cc(C(=O)N[C@H](Cc2ccc(-c3cc(Cl)ccc3F)cc2)C[C@@](C)(CO)C(=O)O)[nH]n1` [Example 8A, (2S,4R)-4-[(5-Acetyl-2H-pyrazole-3-carbonyl)amino]-5-(5′-chloro-2′-fluorobiphenyl-4-yl)-2-hydroxymethyl-2-methylpentanoic Acid], the Ki was at most 1 nM.

Take `CCOC[C@](C)(C[C@@H](Cc1ccc(-c2cc(Cl)ccc2F)cc1)NC(=O)c1cc(C(C)=O)[nH]n1)C(=O)O` [Example 8C, (2S,4R)-4-[(5-Acetyl-1H-pyrazole-3-carbonyl)amino]-5-(5′-chloro-2′-fluorobiphenyl-4-yl)-2-ethoxymethyl-2-methylpentanoic Acid]: the Ki is at most 1 nM.

Regarding `CCOC[C@](C)(C[C@@H](Cc1ccc(-c2cccc(Cl)c2)cc1)NC(=O)c1cnn[nH]1)C(=O)O` [Example 2K, (2S,4R)-5-(3′-Chlorobiphenyl-4-yl)-2-ethoxymethyl-2-methyl-4-[(3H-[1,2,3]triazole-4-carbonyl)amino]pentanoic Acid], the Ki is at most 1 nM.

As for `COc1cc(C(=O)N[C@H](Cc2ccc(-c3cc(Cl)ccc3F)cc2)C[C@@](C)(CO)C(=O)O)on1` [Example 6G, (2S,4R)-5-(5′-Chloro-2′-fluorobiphenyl-4-yl)-2-hydroxymethyl-4-[(3-methoxyisoxazole-5-carbonyl)amino]-2-methylpentanoic Acid], the Ki is at most 1 nM.

For the compound `COC[C@](C)(C[C@@H](Cc1ccc(-c2cc(Cl)ccc2F)cc1)NC(=O)c1cc(O)no1)C(=O)O` [Example 6K, (2S,4R)-5-(5′-Chloro-2′-fluorobiphenyl-4-yl)-4-[(3-hydroxyisoxazole-5-carbonyl)amino]-2-methoxymethyl-2-methylpentanoic Acid], the Ki is 1 to 3.16 nM.

In the case of `C[C@@](CO)(C[C@@H](Cc1ccc(-c2cc(Cl)ccc2F)cc1)NC(=O)c1c[nH]c(=O)o1)C(=O)O` [Example 5D, (2S,4R)-5-(5′-Chloro-2′-fluorobiphenyl-4-yl)-2-hydroxymethyl-2-methyl-4-[(2-oxo-2,3-dihydro-oxazole-5-carbonyl)amino]pentanoic Acid], the Ki is at most 1 nM.

For the origin of these results see US11919888B2, “Neprilysin inhibitors” (THERAVANCE BIOPHARMA R&D IP, LLC, priority 2012, dated 2024).
